From paper PMC11822212, “High-throughput screening identifies Aurora kinase B as a critical therapeutic target for Merkel cell carcinoma” (Nature Communications, 2025)
Where two headings read alike, the source gives them in different places.

What was measured:
[1] = tested on: control cell lines (HACAT, HEK293T, CRL-7250, NIH-3T3); test: qHTS cell viability, control cell lines as a group (mean AUC, Control.avg); assay type: cell-based
MKL-2 cells (VP-MCC) = test: qHTS cell viability (CellTiter-Glo, 72 h; primary and follow-up small molecule screen); assay type: cell-based, human
MCC26 cells (VN-MCC) = test: as above; assay type: cell-based, human
[2] = tested on: VP-MCC cell lines (WAGA, MKL-1, MKL-2); test: qHTS cell viability, VP-MCC cell lines as a group (mean AUC, VP.MCC.avg); assay type: cell-based, human
WAGA cells (VP-MCC) = test: qHTS cell viability (CellTiter-Glo, 72 h; primary and follow-up small molecule screen); assay type: cell-based, human
UISO cells (VN-MCC) = test: as above; assay type: cell-based, human
[3] = tested on: MCC cell lines (WAGA, MKL-1, MKL-2, MCC13, MCC26, UISO); test: qHTS cell viability, all six MCC cell lines as a group (mean AUC, MCC.avg); assay type: cell-based, human
CRL-7250 cells = test: qHTS cell viability (CellTiter-Glo, 72 h; primary screen), control cell line; assay type: cell-based
HACAT cells = test: as above; assay type: cell-based, human
HEK293T cells = test: as above; assay type: cell-based, human
MKL-1 cells (VP-MCC) = test: qHTS cell viability (CellTiter-Glo, 72 h; primary and follow-up small molecule screen); assay type: cell-based, human
[4] = tested on: VN-MCC cell lines (MCC13, MCC26, UISO); test: qHTS cell viability, VN-MCC cell lines as a group (mean AUC, VN.MCC.avg); assay type: cell-based, human
NIH-3T3 cells = test: qHTS cell viability (CellTiter-Glo, 72 h; primary screen), control cell line; assay type: cell-based, mouse
MCC13 cells (VN-MCC) = test: qHTS cell viability (CellTiter-Glo, 72 h; primary and follow-up small molecule screen); assay type: cell-based, human
[5] = tested on: six MCC cell lines and four control cell lines; test: qHTS cell viability, all 10 cell lines screened; assay type: cell-based
[6] = NPC library, mean AUC of control cell lines
[7] = NPC library, qHTS dose-response AUC, MKL2
[8] = area under the dose-response curve, MKL-2 cells, AUC<450 = reduced viability
[9] = NPC library, qHTS dose-response AUC, MCC26
[10] = area under the dose-response curve, MCC26 cells, AUC<450 = reduced viability
[11] = NPC library, mean AUC of VP-MCC cell lines
[12] = NPC library, therapeutic window: Control avg AUC minus VP-MCC avg AUC
[13] = NPC library, qHTS dose-response AUC, WAGA
[14] = area under the dose-response curve, WAGA cells, AUC<450 = reduced viability
[15] = NPC library, qHTS dose-response AUC, UISO
[16] = area under the dose-response curve, UISO cells, AUC<450 = reduced viability
[17] = NPC library, mean AUC of six MCC cell lines
[18] = NPC library, qHTS dose-response AUC, CRL7250 control
[19] = area under the dose-response curve, CRL7250 control cells, AUC<450 = reduced viability
[20] = NPC library, qHTS dose-response AUC, HACAT control
[21] = area under the dose-response curve, HACAT control cells, AUC<450 = reduced viability
[22] = NPC library, qHTS dose-response AUC, HEK293T control
[23] = area under the dose-response curve, HEK293T control cells, AUC<450 = reduced viability
[24] = NPC library, qHTS dose-response AUC, MKL1
[25] = NPC library, mean AUC of VN-MCC cell lines
[26] = NPC library, therapeutic window: Control avg AUC minus VN-MCC avg AUC
[27] = NPC library, qHTS dose-response AUC, NIH3T3 control
[28] = area under the dose-response curve, NIH3T3 control cells, AUC<450 = reduced viability
[29] = NPC library, qHTS dose-response AUC, MCC13
[30] = area under the dose-response curve, MCC13 cells, AUC<450 = reduced viability
[31] = NPC library, therapeutic window: Control avg AUC minus MCC avg AUC
[32] = MIPE library, 11-point DRC, sheet S2E
[33] = MIPE library, 11-point DRC, control cell line, sheet S2E

Work on `CCCC(=O)OC[C@@H](OC(=O)CCC)[C@@H](OC(=O)CCC)[C@H](Cn1c2nc(=O)[nH]c(=O)c-2nc2cc(C)c(C)cc21)OC(=O)CCC` [Riboflavin tetrabutyrate] yielded a Control_Avg_AUC [1, 6] of 472.698, an MKL2_AUC (MKL-2 cells (VP-MCC); [7]) of 430.163 and an MKL2_AUC (MKL-2 cells (VP-MCC); [8]) of 430.163. For the same compound, the MCC26_AUC (MCC26 cells (VN-MCC); [9]) was 500.723, the MCC26_AUC (MCC26 cells (VN-MCC); [10]) was 500.723 and the VP-MCC_Avg_AUC [2, 11] was 421.656. For the same compound, the Control-VP-MCC [2, 12] was 51.0422, the WAGA_AUC (WAGA cells (VP-MCC); [13]) was 418.091 and the WAGA_AUC (WAGA cells (VP-MCC); [14]) was 418.091. For the same compound, the UISO_AUC (UISO cells (VN-MCC); [15]) was 492.96, the UISO_AUC (UISO cells (VN-MCC); [16]) was 492.96 and the MCC_Avg_AUC [3, 17] was 456.689. It also gave a CRL7250_AUC (CRL-7250 cells; [18]) of 470.473, a CRL7250_AUC (CRL-7250 cells; [19]) of 470.473 and an HACAT_AUC (HACAT cells; [20]) of 497.126. It also gave an HACAT_AUC (HACAT cells; [21]) of 497.126, an HEK293T_AUC (HEK293T cells; [22]) of 450.178 and an HEK293T_AUC (HEK293T cells; [23]) of 450.178. It also gave an MKL1_AUC (MKL-1 cells (VP-MCC); [24]) of 416.714, an MKL1_AUC (MKL-1 cells (VP-MCC); {}) of 416.714 and a VN-MCC_Avg_AUC [4, 25] of 491.721. The Control-VN-MCC [4, 26] was -19.0227, the NIH3T3_AUC (NIH-3T3 cells; [27]) was 473.017 and the NIH3T3_AUC (NIH-3T3 cells; [28]) was 473.017. For the same compound, the MCC13_AUC (MCC13 cells (VN-MCC); [29]) was 481.481, the MCC13_AUC (MCC13 cells (VN-MCC); [30]) was 481.481 and the Control-MCC [5, 31] was 16.0097.
Work on `C[C@@H]1CN(CCCn2c3ccccc3c3ccccc32)C[C@H](C)N1.Cl.Cl` [Rimcazole dihydrochloride] yielded a Control_Avg_AUC [1, 6] of 450.496, an MKL2_AUC (MKL-2 cells (VP-MCC); [7]) of 350.893 and an MCC26_AUC (MCC26 cells (VN-MCC); [9]) of 457.379. It also gave a VP-MCC_Avg_AUC [2, 11] of 379.963, a Control-VP-MCC [2, 12] of 70.5333 and a WAGA_AUC (WAGA cells (VP-MCC); [13]) of 396.152. It also gave a UISO_AUC (UISO cells (VN-MCC); [15]) of 420.46, an MCC_Avg_AUC [3, 17] of 415.095 and a CRL7250_AUC (CRL-7250 cells; [18]) of 463.168. The HACAT_AUC (HACAT cells; [20]) was 421.634, the HEK293T_AUC (HEK293T cells; [22]) was 453.163 and the MKL1_AUC (MKL-1 cells (VP-MCC); [24]) was 392.844. The VN-MCC_Avg_AUC [4, 25] was 450.226, the Control-VN-MCC [4, 26] was 0.27 and the NIH3T3_AUC (NIH-3T3 cells; [27]) was 464.02. The MCC13_AUC (MCC13 cells (VN-MCC); [29]) was 472.84 and the Control-MCC [5, 31] was 35.4016.
Compound `C=CCC1([C@H](C)CCC)C(=O)NC(=O)NC1=O` [S-(-)-Secobarbital] has a Control_Avg_AUC [1] of 485.883, an MKL2_AUC (MKL-2 cells (VP-MCC)) of 429.062 and an MCC26_AUC (MCC26 cells (VN-MCC)) of 414.278. For the same compound, the Control-VP-MCC [2] was 50.9524, the VP-MCC_Avg_AUC [2] was 434.931 and the WAGA_AUC (WAGA cells (VP-MCC)) was 434.137. The UISO_AUC (UISO cells (VN-MCC)) was 438.072, the MCC_Avg_AUC [3] was 436.213 and the CRL7250_AUC (CRL-7250 cells) was 492.207. The HACAT_AUC (HACAT cells) was 491.817, the HEK293T_AUC (HEK293T cells) was 485.529 and the MKL1_AUC (MKL-1 cells (VP-MCC)) was 441.594. For the same compound, the Control-VN-MCC [4] was 48.3879, the VN-MCC_Avg_AUC [4] was 437.495 and the NIH3T3_AUC (NIH-3T3 cells) was 473.981. For the same compound, the MCC13_AUC (MCC13 cells (VN-MCC)) was 460.136 and the Control-MCC [5] was 49.6701.
Work on `Cc1c(C)n(Cc2ccc(-c3ccccc3C(=O)O)cc2)c2ccc(C(=O)N[C@@H](C)c3ccc([N+](=O)[O-])cc3)cc12` [SR1664] yielded a Control_Avg_AUC ([1]; MIPE library, mean AUC of control cell lines, sheet S2E) of 477.269, an MKL2_AUC (MKL-2 cells (VP-MCC); [32]) of 319.019 and an MKL2_AUC (MKL-2 cells (VP-MCC); [8]) of 319.019. For the same compound, the MCC26_AUC (MCC26 cells (VN-MCC); [32]) was 470.066, the MCC26_AUC (MCC26 cells (VN-MCC); [10]) was 470.066 and the Control-VP-MCC ([2]; MIPE library, Control AUC minus VP-MCC AUC (therapeutic window), sheet S2E) was 161.027. For the same compound, the VP-MCC_Avg_AUC ([2]; MIPE library, mean AUC of VP-MCC cell lines, sheet S2E) was 316.242, the WAGA_AUC (WAGA cells (VP-MCC); [32]) was 329.214 and the WAGA_AUC (WAGA cells (VP-MCC); [14]) was 329.214. It also gave a UISO_AUC (UISO cells (VN-MCC); [32]) of 472.261, a UISO_AUC (UISO cells (VN-MCC); [16]) of 472.261 and an MCC_Avg_AUC ([3]; MIPE library, mean AUC of six MCC cell lines, sheet S2E) of 394.468. For the same compound, the CRL7250_AUC (CRL-7250 cells; [33]) was 475.771, the CRL7250_AUC (CRL-7250 cells; [19]) was 475.77 and the HACAT_AUC (HACAT cells; [33]) was 479.075. For the same compound, the HACAT_AUC (HACAT cells; [21]) was 479.075, the HEK293T_AUC (HEK293T cells; [33]) was 470.145 and the HEK293T_AUC (HEK293T cells; [23]) was 470.145. The MKL1_AUC (MKL-1 cells (VP-MCC); [32]) was 300.491, the MKL1_AUC (MKL-1 cells (VP-MCC); area under the dose-response curve, MKL-1 cells, AUC<450 = reduced viability) was 300.491 and the Control-VN-MCC ([4]; MIPE library, Control AUC minus VN-MCC AUC (therapeutic window), sheet S2E) was 4.574. It also gave a VN-MCC_Avg_AUC ([4]; MIPE library, mean AUC of VN-MCC cell lines, sheet S2E) of 472.695, an NIH3T3_AUC (NIH-3T3 cells; [33]) of 484.086 and an NIH3T3_AUC (NIH-3T3 cells; [28]) of 484.086. The MCC13_AUC (MCC13 cells (VN-MCC); [32]) was 475.759, the MCC13_AUC (MCC13 cells (VN-MCC); [30]) was 475.759 and the Control-MCC ([5]; MIPE library, Control AUC minus MCC AUC (therapeutic window), sheet S2E) was 82.8007.
